# Test results published in patent publication US20120294869A1, “Methods for Treating Fatty Liver Disease” (Nevada Cancer Institute, priority 2011, published 2012).
# Where two headings read alike, the source gives them in different places.
# Experiments:
# [1] = tested on: UPP-2; details: mouse liver tissue; cited from earlier work
# [2] = tested on: UPP-1-TG mice; experiment: Raman spectroscopy of lipid-chain unsaturation in liver lipid droplets; assay type: in vivo, mouse; details: UPP-1-TG mice fed with Urd
# Excerpt: Red and blue arrows point to 1445 cm^−1 and 1660 cm^−1 peaks, respectively. (B) is a graph showing that 11660/11445 is linearly dependent on lipid-chain unsaturation. (C) is a bar graph depicting lipid-chain unsaturation of liver lipid droplets as a function of WT and UPP-1-TG mice. Error bars represent standard deviation across 18 lipid droplets measured.
# In control UPP-1-TG mice, the value of 11660/11445, which is a reliable measure of lipid-chain unsaturation (FIG. 4A-B; Rinia, H. A., et al (2008) Biophysical Journal 95: 4908-4914, 2008), was 1.05 (FIG. 4C). In UPP-1-TG mice fed with Urd, the 11660/11445 value of liver lipid droplets was 0.3. The 11660/11445 value of liver lipid droplets was 0.8 for control WT mice.
# [3] = tested on: Primary hepatocytes from UPP-1-TG mice; experiment: Intracellular lipid droplet accumulation in primary hepatocytes (CARS); assay type: cell-based, mouse; details: UPP-1-TG primary hepatocytes, 24 hour incubation, 100 μM Urd
# Excerpt: (B) is a bar graph representing quantitative analysis of intracellular lipid level in 15 isolated hepatocytes from each group. Intracellular lipid level is defined as the square root of the CARS signal arising from the intracellular lipid droplets of each hepatocyte. Intracellular lipid level is normalized to 1 for WT hepatocytes.
# To further confirm our results and to provide a more practical in vitro method, short term cultures of primary liver hepatocytes were generated. WT and UPP-1-TG mouse hepatocytes were isolated using a two-step collagenase perfusion technique initially described by Seglen (Seglen, P.O. (1976) Methods Cell Biol. 13: 29-83). Viability ranged from 80-90% as determined by trypan blue exclusion. Hepatocyte enrichment reached approximately 85-90%. Cells were monitored for albumin expression through 72 hours, with no discernible differences when compared to the initial isolation.
# [4] = tested on: UPP-1-TG mice; experiment: CARS imaging of liver lipid accumulation after dietary Urd supplementation; assay type: in vivo, mouse; details: Urd 2 to 5% in dry diet
# Excerpt: Images are presented as 3-D stacks. (B) is a bar graph representing quantitative analysis of liver lipid in 18 probed volumes with xyz dimensions of 125×125×25 μm. Three mice per group were used for analysis. Lipid level is defined as the square root of the CARS signal arising from the lipid droplets. Lipid level is normalized to 1 for WT mice. Error bars represent the standard deviations. (C) is a graph depicting Raman spectroscopy analysis of lipid droplet composition.
# Using CARS microscopy to image 100-micron thick sections of explanted liver tissues, the effect of the disruption of URD homeostasis on liver lipids was evaluated. As reprinted in FIG. 1, a dramatic difference in liver lipid accumulation among WT, UPP-1-KO and UPP-1-TG mice was observed. […] To confirm the results obtained through CARS microscopy, Oil Red O staining (specific for neutral triglycerides and lipids) of the frozen liver sections was conducted, which yielded similar results to the CARS technology (data not shown).
# [5] = Fate of an i.p. tracer dose of [3H]Urd in mouse plasma; assay type: in vivo; details: for half-life: plasma, ip
# Excerpt: The UPP-1-KO mouse was created by replacing a 2.5 kb fragment of the UPP-1 gene (including exons 4 and 5) with a 1.6 kb neomycin resistance expression cassette. See, e.g., Cao, D. et al. (2002) Cancer Res. 62: 2313-2317 and Cao, D. et al. (2005) J. Biol. Chem. 280: 21169-21175. […] The absence of UPP-1 phosphorolytic (UPase) activity was confirmed by determining the fate of a tracer dose (25 μCi/mouse) of [^3H]Urd injected intraperitoneally (i.p.) in mice. A very rapid disappearance of [^3H]Urd from the plasma of wild-type (WT) mice was observed, with a t1/2, of approximately […] due to active phosphorolysis.
# Enzymatic activity in liver was 10.7±0.3 nmol/hr/mg for the WT animals compared to 252±68 nmol/hr/mg for the transgenic. In WT mice, a tracer dose of [^3H]Urd (25 μCi, i.p.) was rapidly degraded with a t1/2, of approximately 4 minutes. […] Table 1 summarizes the concentrations of URD in WT C57BL/6 mice, the UPP-1-KO and the UPP-1-TG models.
structure (smiles),measurement,setting,value
O=S(=O)(c1ccccc1)N(CC(F)(F)F)c1ccc(C(O)(C(F)(F)F)C(F)(F)F)cc1 [T0901317],effect on UPP-2 expression in mouse liver,[1],potent induction
"O=c1ccn([C@@H]2O[C@H](CO)[C@@H](O)[C@H]2O)c(=O)[nH]1 [Urd, uridine]",11660/11445 value of liver lipid droplets (lipid-chain unsaturation),[2],0.3
same,reduction in intracellular lipid droplet accumulation,[3],10 fold
same,reduction of liver lipid accumulation,[4],~15 fold
O=c1ccn([C@@H]2O[C@H](CO)[C@@H](O)[C@H]2O)c(=O)[nH]1 [[^3H]Urd],half-life,"[5]; C57BL/6, mouse, 25 μCi/mouse, wild-type (WT) mice, tracer dose 25 μCi/mouse i.p., read-out: [3H]Urd plasma t1/2",~4 min
same,[3H]Urd detectability after administration,"[5]; UPP-1-TG (ubiquitous UPP-1 transgenic), mouse, in vivo, 15 minutes",no [^3H]Urd detectable
same,half-life,"[5]; UPP-1-TG (ubiquitous UPP-1 transgenic), mouse, 25 μCi, UPP-1-TG mice, tracer dose 25 μCi i.p., read-out: [3H]Urd t1/2",< 0.5 min
same,half-life,"[5]; mouse, 25 μCi/mouse, UPP-1-KO mice, tracer dose 25 μCi/mouse i.p., read-out: [3H]Urd plasma t1/2",15 to 18 min
